Results taken from ChEMBL document CHEMBL4616644, “Furofuranone Lignans from Leucophyllum ambiguum” (J Nat Prod, 2020).
pIC50: −log10 of the molar value.

How the values were obtained:
Acetylcholinesterase [1] = molecular target: T1, Acetylcholinesterase (Homo sapiens, UniProt P22303); experiment: Inhibition of acetylcholinesterase (unknown origin) at 0.01 to 100 uM using acetylthiocholine as substrate preincubated for 30 mins followed by substrate addition and measured after 2 mins by Ellman's method relative to control
T1 sequence (P22303 whole entry): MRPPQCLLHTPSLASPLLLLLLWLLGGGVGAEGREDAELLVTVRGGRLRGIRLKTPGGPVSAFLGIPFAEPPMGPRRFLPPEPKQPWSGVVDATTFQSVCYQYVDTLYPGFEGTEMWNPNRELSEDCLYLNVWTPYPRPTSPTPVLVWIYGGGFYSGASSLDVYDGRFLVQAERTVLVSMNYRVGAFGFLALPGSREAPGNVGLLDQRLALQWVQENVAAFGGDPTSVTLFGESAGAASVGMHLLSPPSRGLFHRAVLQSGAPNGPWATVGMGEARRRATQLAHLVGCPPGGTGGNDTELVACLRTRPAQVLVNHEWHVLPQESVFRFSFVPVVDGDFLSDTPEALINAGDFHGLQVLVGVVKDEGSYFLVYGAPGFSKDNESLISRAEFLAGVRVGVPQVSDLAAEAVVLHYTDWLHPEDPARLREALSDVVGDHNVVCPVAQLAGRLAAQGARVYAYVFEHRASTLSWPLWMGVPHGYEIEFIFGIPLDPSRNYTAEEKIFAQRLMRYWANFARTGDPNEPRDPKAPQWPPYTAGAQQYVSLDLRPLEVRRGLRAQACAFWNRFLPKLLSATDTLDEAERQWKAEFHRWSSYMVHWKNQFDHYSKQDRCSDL

Acetylcholinesterase [2] = molecular target: T1, Acetylcholinesterase; experiment: Inhibition of acetylcholinesterase (unknown origin) using acetylthiocholine as substrate preincubated for 30 mins followed by substrate addition and measured after 2 mins by Ellman's method

Row | SMILES | inhibition (Acetylcholinesterase [1]) | pIC50 (Acetylcholinesterase [2])
1 | COc1ccc([C@H]2O[C@@H](O)[C@H]3[C@@H]2C(=O)O[C@@H]3c2ccc(OC)c(OC)c2)cc1OC | > 70% | 7.55
2 | COc1ccc([C@H]2OC[C@H]3[C@@H]2CO[C@@H]3c2cc(OC)c(OC)c(OC)c2)cc1OC | > 90% | 6.04
3 | COc1ccc([C@H](O)[C@H](N)C(=O)O)cc1OC | > 70% | 9.00
4 | COc1cc([C@H]2OC[C@H]3[C@@H]2CO[C@@H]3c2cc(OC)c(OC)c(OC)c2)cc(OC)c1OC | 65% | 6.21
5 | COc1ccc([C@H]2OC(=O)[C@H]3[C@@H]2C(=O)O[C@@H]3c2ccc3c(c2)OCO3)cc1OC | > 90% | 6.80
6 | COc1ccc([C@H]2OC[C@H]3[C@@H]2C(=O)O[C@@H]3c2ccc3c(c2)OCO3)cc1OC | > 70% | 5.65
7 | COc1cc([C@H]2OC[C@H]3[C@@H]2CO[C@@H]3c2cc(OC)c3c(c2)OCO3)cc(OC)c1OC | 81% | 6.34
8 | COc1ccc([C@H]2O[C@@H](O)[C@H]3[C@@H]2C(=O)O[C@@H]3c2cc(OC)c3c(c2)OCO3)cc1OC | > 70% | 8.52
